These results are taken from ChEMBL document CHEMBL1201862, “PubChem BioAssay data set” (2004).

Structures are written as SMILES.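 96-well plates; 48 h exposure; 5 concentrations. Endpoints by linear interpolation between flanking doses. Not reached: highest tested concentration assigned. GI50 marks 50% less growth.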 Calls of active or inactive are those of the source. Cut-off read from the data, not from the text of the source: active = GI50 up to about 1.1 µM and inactive = higher.

Among the test systems are A498; CAKI-1; CCRF-CEM; DU-145; HCC 2998; HCT-116; Hs-578T; IGROV-1; LOX IMVI; MCF7; MDA-MB-231; MDA-MB-435; Malme-3M; OVCAR-4; SK-MEL-5; SNB-19; SR; SW-620; UO-31.
Common to all, as to assay: inhibition of tumour cell growth, NCI panel, 48 h

Regarding `CC1=CCC[C@@](C)(O)[C@@H]2C[C@H]3C(CSc4ccccc4)C(=O)O[C@H]3[C@@H](O2)[C@H](C)CCC1` (stereo not given in full), the GI50 in the assay on A498 is 18 µM (inactive); with CAKI-1, 25.1 µM (inactive); with CCRF-CEM, > 100 µM (inactive); in the assay with DU-145, 25.6 µM (inactive); with HCC 2998, 15.8 µM (inactive); in the assay with HCT-116 it was 21.4 µM (inactive). The GI50 in the assay with Hs-578T is 18.4 µM (inactive); in the assay with IGROV-1, 14.5 µM (inactive); in the assay with LOX IMVI it was 15.9 µM (inactive); with MCF7, 13.8 µM (inactive); with MDA-MB-231 it was 28.1 µM (inactive); in the assay with MDA-MB-435, 20.3 µM (inactive). Further, the GI50 is 13.7 µM (inactive) in the assay on Malme-3M; 19.8 µM (inactive) in the assay with OVCAR-4; 14.5 µM (inactive) with SK-MEL-5; 13.2 µM (inactive) in the assay with SNB-19; 6.35 µM (inactive) in the assay on SR; 27 µM (inactive) in the assay on SW-620. In addition, the GI50 with UO-31 was 11.8 µM (inactive).

As to `CN(C)CC1CCCc2ccccc2C1=O` (stereo not given), the GI50 with A498 is 19.5 µM (inactive); with CAKI-1 it was 1.93 µM (inactive); in the assay with CCRF-CEM, 0.107 µM (active); in the assay on DU-145, 6.1 µM (inactive); in the assay on HCC 2998, 6.31 µM (inactive); in the assay with HCT-116, 1.85 µM (inactive). In addition, the GI50 in the assay on Hs-578T is 3.93 µM (inactive); with IGROV-1, 2.06 µM (inactive); in the assay with LOX IMVI, 2.16 µM (inactive); in the assay with MCF7, 0.231 µM (active); in the assay on MDA-MB-231 it was 5.07 µM (inactive); in the assay on MDA-MB-435, 0.897 µM (active). Further, the GI50 with Malme-3M was 1.77 µM (inactive); in the assay with OVCAR-4 it was 0.839 µM (active); with SK-MEL-5, 4.4 µM (inactive); in the assay on SNB-19, 13 µM (inactive); in the assay on SR it was 0.271 µM (active); in the assay on SW-620 it was 0.54 µM (active). For the same compound, the GI50 in the assay on UO-31 was 1.9 µM (inactive).

For `CC[C@]12C=CCN3CC[C@@]4(c5cc(N=O)c(OC)cc5N(C)[C@H]4[C@@](O)(C(=O)OC)[C@@H]1OC(C)=O)[C@@H]32`, the GI50 in the assay on A498 is > 100 µM (inactive); in the assay on CAKI-1 it was 41 µM (inactive); with CCRF-CEM, 21.6 µM (inactive); in the assay with DU-145, > 100 µM (inactive); with HCC 2998, > 100 µM (inactive); in the assay with HCT-116 it was 50.7 µM (inactive). The GI50 in the assay on Hs-578T was 73.5 µM (inactive); in the assay on IGROV-1, > 100 µM (inactive); in the assay on LOX IMVI, 34.1 µM (inactive); in the assay on MCF7 it was 24.5 µM (inactive); in the assay with MDA-MB-231 it was 39.4 µM (inactive); with MDA-MB-435 it was 25.1 µM (inactive). Besides, the GI50 in the assay on Malme-3M is 71.3 µM (inactive); in the assay on OVCAR-4, > 100 µM (inactive); with SK-MEL-5 it was 37.9 µM (inactive); with SNB-19, > 100 µM (inactive); in the assay on SR, 47.8 µM (inactive); with SW-620, 31.6 µM (inactive). The GI50 in the assay on UO-31 was > 100 µM (inactive).

`CC1(C)C=C(S(=O)(=O)c2ccccc2)Oc2ccccc2O1`: the GI50 in the assay with A498 was 30.8 µM (inactive); in the assay with CAKI-1, 69.2 µM (inactive); with CCRF-CEM it was 40.1 µM (inactive); in the assay with DU-145, 91 µM (inactive); with HCC 2998 it was 15.7 µM (inactive); in the assay with HCT-116, 29.5 µM (inactive). Moreover, the GI50 with Hs-578T was 64.9 µM (inactive); in the assay on IGROV-1, 44.2 µM (inactive); with LOX IMVI, 16.3 µM (inactive); in the assay on MCF7 it was 43.5 µM (inactive); in the assay on MDA-MB-231, > 100 µM (inactive); in the assay on MDA-MB-435 it was 20.5 µM (inactive). For the same compound, the GI50 with Malme-3M is 26.2 µM (inactive); with OVCAR-4, 37.4 µM (inactive); with SK-MEL-5 it was 15.4 µM (inactive); with SNB-19, 62.5 µM (inactive); with SR, 41.9 µM (inactive); in the assay on SW-620, 75.9 µM (inactive). Besides, the GI50 in the assay on UO-31 was 20.7 µM (inactive).

`CN(C)c1cccc(F)c1C(=O)NC(=O)Nc1ccc(Cl)cc1`: the GI50 in the assay on A498 was 11.5 µM (inactive); with CAKI-1 it was 3.78 µM (inactive); in the assay with CCRF-CEM, 0.745 µM (active); in the assay with DU-145, 4.03 µM (inactive); with HCC 2998, 1.4 µM (inactive); in the assay with HCT-116, 1.77 µM (inactive). Moreover, the GI50 with Hs-578T was 2.21 µM (inactive); in the assay on IGROV-1, 3.78 µM (inactive); in the assay on LOX IMVI, 3.01 µM (inactive); with MCF7, 2.17 µM (inactive); with MDA-MB-231, 14.8 µM (inactive); with MDA-MB-435, 0.118 µM (active). For the same compound, the GI50 is 1.76 µM (inactive) in the assay with Malme-3M; > 43 µM (inactive) in the assay on OVCAR-4; 3.33 µM (inactive) with SK-MEL-5; > 26.1 µM (inactive) in the assay with SNB-19; 0.218 µM (active) with SR; 1.24 µM (inactive) in the assay on SW-620. Further, the GI50 in the assay on UO-31 was 5.87 µM (inactive).

On to `CC(C)C(OC(=O)c1ccc(NCc2cc(O)ccc2O)cc1)C(C)C`, for which the GI50 in the assay on A498 is 2.25 µM (inactive); with CAKI-1 it was 0.218 µM (active); in the assay with CCRF-CEM it was 0.102 µM (active); with DU-145, 7.01 µM (inactive); with HCC 2998 it was 2.96 µM (inactive); with HCT-116 it was 2.76 µM (inactive). Also, the GI50 is 1.02 µM (active) in the assay with Hs-578T; 0.855 µM (active) in the assay with IGROV-1; 0.776 µM (active) in the assay with LOX IMVI; 2.87 µM (inactive) in the assay with MCF7; 2.07 µM (inactive) with MDA-MB-231; 1.29 µM (inactive) in the assay with MDA-MB-435. The GI50 with Malme-3M is 1.77 µM (inactive); with OVCAR-4, 1.47 µM (inactive); with SK-MEL-5, 2.2 µM (inactive); with SNB-19, 1.29 µM (inactive); in the assay on SR, 0.617 µM (active); with SW-620, 1.96 µM (inactive). For the same compound, the GI50 in the assay with UO-31 was 1.17 µM (inactive).

With `CCN(CC)c1c(N(CC)CC)c(=O)c1=O`, the GI50 with A498 was 22.6 µM (inactive); with CAKI-1 it was 4.27 µM (inactive); in the assay on CCRF-CEM, 3.53 µM (inactive); in the assay with DU-145, 9.31 µM (inactive); in the assay with HCC 2998, 20.3 µM (inactive); in the assay on HCT-116, 8.07 µM (inactive). For the same compound, the GI50 was 21.7 µM (inactive) in the assay with Hs-578T; 2.81 µM (inactive) in the assay with IGROV-1; 11.8 µM (inactive) in the assay on LOX IMVI; 11.2 µM (inactive) with MCF7; 7.55 µM (inactive) in the assay with MDA-MB-231; 20.7 µM (inactive) in the assay with MDA-MB-435. In addition, the GI50 in the assay with Malme-3M was 3.25 µM (inactive); in the assay with OVCAR-4, 18.9 µM (inactive); with SK-MEL-5, 17.4 µM (inactive); in the assay on SNB-19, > 63.8 µM (inactive); with SR it was 24.8 µM (inactive); with SW-620, 4.16 µM (inactive). The GI50 with UO-31 is 5.32 µM (inactive).

Consider `CS(=O)(=O)OC1CCN(C2(c3cccc(O)c3)CCCCC2)CC1`, for which the GI50 is > 100 µM (inactive) in the assay on A498; > 100 µM (inactive) in the assay on CAKI-1; 22.6 µM (inactive) with CCRF-CEM; 82.6 µM (inactive) in the assay on DU-145; 20.6 µM (inactive) in the assay on HCC 2998; 31.8 µM (inactive) in the assay on HCT-116. Besides, the GI50 in the assay on Hs-578T was > 100 µM (inactive); with IGROV-1 it was 28.7 µM (inactive); in the assay on LOX IMVI it was 21.8 µM (inactive); in the assay on MCF7 it was 31.8 µM (inactive); in the assay with MDA-MB-231, 73.5 µM (inactive); in the assay with MDA-MB-435, 29.2 µM (inactive). For the same compound, the GI50 was > 100 µM (inactive) with Malme-3M; 43 µM (inactive) in the assay on OVCAR-4; 43.5 µM (inactive) with SK-MEL-5; > 100 µM (inactive) with SNB-19; 23.6 µM (inactive) in the assay on SR; 29.9 µM (inactive) in the assay with SW-620. For the same compound, the GI50 with UO-31 is 44.7 µM (inactive).

Consider `O=C1c2cccc3cccc(c23)C(=O)N1CCCNOCCONCCCN1C(=O)c2cccc3cccc(c23)C1=O`, for which the GI50 in the assay on A498 was > 100 µM (inactive); in the assay on CAKI-1, 49.3 µM (inactive); in the assay with CCRF-CEM, 11.8 µM (inactive); with DU-145 it was > 100 µM (inactive); with HCC 2998, 98.2 µM (inactive); with HCT-116, 27.4 µM (inactive). Besides, the GI50 in the assay with Hs-578T is 92.3 µM (inactive); in the assay with IGROV-1, 62.8 µM (inactive); in the assay on LOX IMVI it was 43.5 µM (inactive); in the assay on MCF7, 64.7 µM (inactive); with MDA-MB-231, > 100 µM (inactive); in the assay on MDA-MB-435 it was > 100 µM (inactive). In addition, the GI50 was 91.2 µM (inactive) with Malme-3M; 86.3 µM (inactive) with OVCAR-4; 58.5 µM (inactive) in the assay with SK-MEL-5; 47.9 µM (inactive) in the assay on SNB-19; 81.7 µM (inactive) with SR; 66.4 µM (inactive) in the assay on SW-620. In addition, the GI50 with UO-31 was 45.5 µM (inactive).

Regarding `C#C[C@]1(O)CC[C@H]2[C@@H]3CCC4=C/C(=N\OCCN5CCCC5)CC[C@]4(C)[C@H]3CC[C@@]21C`, the GI50 in the assay on A498 is 18.7 µM (inactive); in the assay with CAKI-1, 12.4 µM (inactive); in the assay with CCRF-CEM it was 14.6 µM (inactive); with DU-145, 19 µM (inactive); in the assay on HCC 2998, 16.6 µM (inactive); in the assay on HCT-116 it was 8.36 µM (inactive). The GI50 is 6.25 µM (inactive) with Hs-578T; 4.79 µM (inactive) in the assay on IGROV-1; 11.5 µM (inactive) in the assay with LOX IMVI; 4.72 µM (inactive) in the assay with MCF7; 19.2 µM (inactive) in the assay with MDA-MB-231; 3 µM (inactive) in the assay with MDA-MB-435. Further, the GI50 in the assay on Malme-3M is 10.8 µM (inactive); in the assay on OVCAR-4, 20.6 µM (inactive); in the assay on SK-MEL-5 it was 3.67 µM (inactive); in the assay on SNB-19, 15.3 µM (inactive); in the assay on SR, 2.96 µM (inactive); in the assay on SW-620 it was 13.5 µM (inactive). Besides, in the assay with UO-31, the GI50 is 15.7 µM (inactive).
